{
  "source": "paper PMC3961306",
  "about": "“Comparison of the Cancer Gene Targeting and Biochemical Selectivities of All Targeted Kinase Inhibitors Approved for Clinical Use” (PLoS ONE, 2014)",
  "assay_in_all_cases": "Kinase profiling in a biochemical assay panel (mobility shift assays and ELISA), %-inhibition at 1 μM; selectivity entropy",
  "key": {"[1]": {"molecular_target": "T1, panel of more than 300 wild-type and mutant kinases (313 kinase panel) (Homo sapiens, UniProt O00141)", "T1 sequence (O00141 1-431)": "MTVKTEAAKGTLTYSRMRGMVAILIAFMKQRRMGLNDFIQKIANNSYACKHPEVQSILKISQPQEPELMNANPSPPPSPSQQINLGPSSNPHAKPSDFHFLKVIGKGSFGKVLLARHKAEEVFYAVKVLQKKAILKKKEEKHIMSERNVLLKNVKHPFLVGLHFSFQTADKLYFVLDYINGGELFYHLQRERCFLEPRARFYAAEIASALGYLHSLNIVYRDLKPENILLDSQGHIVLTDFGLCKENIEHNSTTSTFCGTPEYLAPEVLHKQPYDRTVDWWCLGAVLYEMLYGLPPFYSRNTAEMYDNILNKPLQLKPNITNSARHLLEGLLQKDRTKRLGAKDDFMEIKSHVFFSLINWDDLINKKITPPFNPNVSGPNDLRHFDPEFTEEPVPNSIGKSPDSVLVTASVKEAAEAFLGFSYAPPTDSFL", "conditions": "kinase SGK; 1 μM"}, "[2]": {"molecular_target": "panel of more than 300 wild-type and mutant kinases (313 kinase panel) (Homo sapiens, UniProt O14578)", "sequence (O14578 whole entry, change not shown)": "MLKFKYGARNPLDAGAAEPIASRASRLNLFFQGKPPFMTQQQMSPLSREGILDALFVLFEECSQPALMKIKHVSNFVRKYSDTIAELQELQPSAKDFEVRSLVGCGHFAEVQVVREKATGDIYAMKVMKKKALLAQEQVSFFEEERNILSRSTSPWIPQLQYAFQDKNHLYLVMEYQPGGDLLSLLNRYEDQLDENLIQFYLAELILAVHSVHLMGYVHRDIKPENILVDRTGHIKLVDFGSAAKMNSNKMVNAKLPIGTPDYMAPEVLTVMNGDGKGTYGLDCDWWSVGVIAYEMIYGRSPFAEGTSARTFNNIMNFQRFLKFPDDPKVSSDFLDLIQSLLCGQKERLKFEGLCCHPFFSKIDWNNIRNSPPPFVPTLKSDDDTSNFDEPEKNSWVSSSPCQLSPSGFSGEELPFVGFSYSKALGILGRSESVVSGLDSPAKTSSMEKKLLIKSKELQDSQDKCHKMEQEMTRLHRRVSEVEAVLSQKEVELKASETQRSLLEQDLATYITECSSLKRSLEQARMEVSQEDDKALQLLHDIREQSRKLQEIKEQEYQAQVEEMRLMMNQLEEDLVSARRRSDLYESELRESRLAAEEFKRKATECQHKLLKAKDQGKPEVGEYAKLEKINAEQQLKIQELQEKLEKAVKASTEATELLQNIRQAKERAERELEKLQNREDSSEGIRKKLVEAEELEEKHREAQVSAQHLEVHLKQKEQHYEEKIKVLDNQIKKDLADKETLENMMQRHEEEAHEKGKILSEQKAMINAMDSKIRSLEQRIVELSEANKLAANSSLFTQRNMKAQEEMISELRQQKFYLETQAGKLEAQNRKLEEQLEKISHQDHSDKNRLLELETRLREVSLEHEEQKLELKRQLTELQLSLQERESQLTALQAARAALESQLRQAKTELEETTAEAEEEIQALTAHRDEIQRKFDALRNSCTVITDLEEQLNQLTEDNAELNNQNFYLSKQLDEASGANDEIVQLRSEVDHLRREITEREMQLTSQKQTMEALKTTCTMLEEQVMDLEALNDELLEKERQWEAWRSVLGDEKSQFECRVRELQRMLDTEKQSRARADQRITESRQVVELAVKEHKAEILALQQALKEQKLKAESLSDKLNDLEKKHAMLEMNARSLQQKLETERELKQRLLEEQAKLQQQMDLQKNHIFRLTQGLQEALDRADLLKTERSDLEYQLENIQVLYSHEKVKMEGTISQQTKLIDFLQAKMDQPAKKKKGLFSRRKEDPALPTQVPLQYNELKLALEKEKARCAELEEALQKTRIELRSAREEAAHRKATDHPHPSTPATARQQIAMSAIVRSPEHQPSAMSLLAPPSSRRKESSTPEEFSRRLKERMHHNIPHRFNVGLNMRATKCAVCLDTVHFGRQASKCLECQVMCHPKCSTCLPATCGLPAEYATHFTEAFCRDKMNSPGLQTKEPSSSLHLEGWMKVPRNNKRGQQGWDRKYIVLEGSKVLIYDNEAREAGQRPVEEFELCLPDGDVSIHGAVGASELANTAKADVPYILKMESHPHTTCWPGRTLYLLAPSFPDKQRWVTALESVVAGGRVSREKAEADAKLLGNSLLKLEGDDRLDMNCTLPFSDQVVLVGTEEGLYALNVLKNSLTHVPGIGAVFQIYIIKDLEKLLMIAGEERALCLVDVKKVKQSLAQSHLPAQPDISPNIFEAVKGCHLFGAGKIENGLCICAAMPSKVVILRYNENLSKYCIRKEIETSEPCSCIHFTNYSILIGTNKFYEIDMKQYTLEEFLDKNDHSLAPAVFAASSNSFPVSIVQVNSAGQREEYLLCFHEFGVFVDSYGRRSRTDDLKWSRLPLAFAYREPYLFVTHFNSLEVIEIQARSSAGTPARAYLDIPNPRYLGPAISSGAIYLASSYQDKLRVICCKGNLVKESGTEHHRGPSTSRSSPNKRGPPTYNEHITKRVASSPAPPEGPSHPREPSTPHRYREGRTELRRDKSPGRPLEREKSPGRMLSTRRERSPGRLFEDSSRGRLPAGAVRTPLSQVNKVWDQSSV", "conditions": "kinase CRIK; compound at 1 μM"}, "[3]": {"molecular_target": "panel of more than 300 wild-type and mutant kinases (313 kinase panel) (Homo sapiens, UniProt P07949, S891A)", "sequence (P07949 29-1114 S891A)": "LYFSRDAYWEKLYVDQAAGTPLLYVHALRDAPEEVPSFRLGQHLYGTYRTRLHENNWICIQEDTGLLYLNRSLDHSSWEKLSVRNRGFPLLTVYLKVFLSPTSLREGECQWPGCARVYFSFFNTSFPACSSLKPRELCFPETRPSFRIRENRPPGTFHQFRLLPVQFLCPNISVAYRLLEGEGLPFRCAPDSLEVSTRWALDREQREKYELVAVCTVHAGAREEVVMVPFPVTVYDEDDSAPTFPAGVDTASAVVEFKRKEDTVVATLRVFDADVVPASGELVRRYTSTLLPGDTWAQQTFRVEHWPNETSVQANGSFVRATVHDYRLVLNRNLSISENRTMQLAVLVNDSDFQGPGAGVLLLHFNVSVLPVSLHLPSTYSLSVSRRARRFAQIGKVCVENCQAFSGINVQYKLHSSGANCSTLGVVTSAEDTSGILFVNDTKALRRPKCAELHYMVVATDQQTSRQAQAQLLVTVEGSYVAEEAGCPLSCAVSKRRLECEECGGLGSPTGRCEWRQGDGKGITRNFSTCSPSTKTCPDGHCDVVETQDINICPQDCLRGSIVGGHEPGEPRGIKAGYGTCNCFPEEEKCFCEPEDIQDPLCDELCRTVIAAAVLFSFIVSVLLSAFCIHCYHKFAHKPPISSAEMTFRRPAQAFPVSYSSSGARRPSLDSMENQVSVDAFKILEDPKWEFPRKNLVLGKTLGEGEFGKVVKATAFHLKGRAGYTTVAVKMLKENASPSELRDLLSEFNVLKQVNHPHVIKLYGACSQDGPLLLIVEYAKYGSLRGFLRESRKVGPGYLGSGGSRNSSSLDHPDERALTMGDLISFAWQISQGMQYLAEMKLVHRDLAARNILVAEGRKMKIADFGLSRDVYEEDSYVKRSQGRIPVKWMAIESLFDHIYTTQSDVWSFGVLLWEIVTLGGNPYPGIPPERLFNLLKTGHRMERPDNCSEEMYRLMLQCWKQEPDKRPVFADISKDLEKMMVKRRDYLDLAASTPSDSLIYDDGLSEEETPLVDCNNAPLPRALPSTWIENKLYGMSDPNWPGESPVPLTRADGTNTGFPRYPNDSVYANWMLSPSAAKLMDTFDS", "conditions": "kinase RET(S891A); 1 μM"}, "[4]": {"molecular_target": "T2, panel of more than 300 wild-type and mutant kinases (313 kinase panel) (Homo sapiens, UniProt Q8IW41)", "T2 sequence (Q8IW41 1-473)": "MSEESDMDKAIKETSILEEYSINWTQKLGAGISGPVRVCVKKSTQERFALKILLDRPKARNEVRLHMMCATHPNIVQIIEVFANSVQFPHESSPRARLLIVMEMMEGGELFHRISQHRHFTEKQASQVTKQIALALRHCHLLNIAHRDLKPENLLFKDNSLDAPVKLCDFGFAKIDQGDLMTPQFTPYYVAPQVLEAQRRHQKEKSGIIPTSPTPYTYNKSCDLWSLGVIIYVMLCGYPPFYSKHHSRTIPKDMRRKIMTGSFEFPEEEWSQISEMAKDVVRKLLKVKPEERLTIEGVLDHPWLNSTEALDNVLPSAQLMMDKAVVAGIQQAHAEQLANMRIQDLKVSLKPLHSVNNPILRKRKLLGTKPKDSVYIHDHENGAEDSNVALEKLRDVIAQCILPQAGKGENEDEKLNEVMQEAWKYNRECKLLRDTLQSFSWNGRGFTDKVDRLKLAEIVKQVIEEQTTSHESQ", "conditions": "kinase MAPKAPK5; compound at 1 μM"}, "[5]": {"molecular_target": "T3, panel of more than 300 wild-type and mutant kinases (313 kinase panel) (Homo sapiens, UniProt Q8TD19)", "T3 sequence (Q8TD19 1-979)": "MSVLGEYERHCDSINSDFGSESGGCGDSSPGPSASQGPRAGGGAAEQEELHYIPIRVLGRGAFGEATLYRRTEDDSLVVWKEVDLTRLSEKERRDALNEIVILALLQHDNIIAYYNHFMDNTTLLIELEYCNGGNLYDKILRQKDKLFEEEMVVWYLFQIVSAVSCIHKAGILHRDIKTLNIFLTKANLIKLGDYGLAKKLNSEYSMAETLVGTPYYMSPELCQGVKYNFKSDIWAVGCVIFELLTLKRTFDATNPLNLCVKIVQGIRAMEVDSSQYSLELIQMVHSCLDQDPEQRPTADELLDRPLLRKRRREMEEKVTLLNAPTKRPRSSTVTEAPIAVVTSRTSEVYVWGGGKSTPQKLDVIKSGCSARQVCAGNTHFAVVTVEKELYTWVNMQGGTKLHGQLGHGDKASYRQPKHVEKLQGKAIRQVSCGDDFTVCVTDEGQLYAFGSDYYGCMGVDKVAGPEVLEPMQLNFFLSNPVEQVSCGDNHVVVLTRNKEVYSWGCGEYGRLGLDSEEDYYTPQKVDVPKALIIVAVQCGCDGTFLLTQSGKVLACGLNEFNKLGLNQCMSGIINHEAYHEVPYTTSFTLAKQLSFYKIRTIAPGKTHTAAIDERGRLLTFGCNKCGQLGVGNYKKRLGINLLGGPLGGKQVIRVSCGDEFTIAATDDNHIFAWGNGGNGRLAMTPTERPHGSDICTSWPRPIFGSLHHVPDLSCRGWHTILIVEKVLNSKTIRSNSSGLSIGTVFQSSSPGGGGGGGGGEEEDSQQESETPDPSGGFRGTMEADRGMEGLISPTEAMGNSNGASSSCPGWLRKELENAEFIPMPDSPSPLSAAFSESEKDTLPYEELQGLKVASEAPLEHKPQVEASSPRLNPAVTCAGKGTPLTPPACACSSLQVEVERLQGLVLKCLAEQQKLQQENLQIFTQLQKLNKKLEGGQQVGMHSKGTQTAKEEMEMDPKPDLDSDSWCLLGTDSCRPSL", "conditions": "kinase NEK9; 1 μM"}, "[6]": {"molecular_target": "panel of more than 300 wild-type and mutant kinases (313 kinase panel) (Homo sapiens, UniProt Q9Y2H1)", "sequence (Q9Y2H1 whole entry, change not shown)": "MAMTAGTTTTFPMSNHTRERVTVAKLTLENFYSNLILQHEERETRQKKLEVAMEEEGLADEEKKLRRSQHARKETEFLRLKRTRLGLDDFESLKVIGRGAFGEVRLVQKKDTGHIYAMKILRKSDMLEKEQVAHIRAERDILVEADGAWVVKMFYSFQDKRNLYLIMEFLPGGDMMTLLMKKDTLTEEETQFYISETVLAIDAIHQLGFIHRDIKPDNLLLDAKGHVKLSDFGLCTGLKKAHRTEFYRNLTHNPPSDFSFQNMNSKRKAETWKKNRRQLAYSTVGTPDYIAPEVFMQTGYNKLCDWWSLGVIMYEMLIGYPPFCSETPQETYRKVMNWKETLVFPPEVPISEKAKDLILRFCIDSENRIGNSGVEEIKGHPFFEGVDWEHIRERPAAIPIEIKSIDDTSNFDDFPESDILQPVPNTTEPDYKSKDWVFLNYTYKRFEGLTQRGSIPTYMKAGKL", "conditions": "kinase NDR2; 1 μM"}, "[7]": {"molecular_target": "panel of more than 300 wild-type and mutant kinases (313 kinase panel) (Homo sapiens, UniProt Q9Y6M4)", "sequence (Q9Y6M4 whole entry, change not shown)": "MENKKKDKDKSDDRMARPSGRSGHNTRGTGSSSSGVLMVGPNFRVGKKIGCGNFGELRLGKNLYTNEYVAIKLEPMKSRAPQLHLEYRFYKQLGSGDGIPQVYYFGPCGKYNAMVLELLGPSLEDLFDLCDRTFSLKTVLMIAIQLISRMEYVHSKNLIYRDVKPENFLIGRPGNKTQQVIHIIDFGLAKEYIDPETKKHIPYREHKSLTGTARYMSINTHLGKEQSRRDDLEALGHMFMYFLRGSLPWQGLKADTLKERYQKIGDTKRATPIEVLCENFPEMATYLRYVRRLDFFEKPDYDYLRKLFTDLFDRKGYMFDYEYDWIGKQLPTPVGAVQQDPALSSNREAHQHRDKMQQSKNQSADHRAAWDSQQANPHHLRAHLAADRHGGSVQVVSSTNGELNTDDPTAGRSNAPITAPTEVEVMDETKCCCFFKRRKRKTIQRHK", "conditions": "kinase CK1γ3; 1 μM compound"}},
  "data": [
    {"smiles": "Cc1ccc(Nc2nccc(N(C)c3ccc4c(C)n(C)nc4c3)n2)cc1S(N)(=O)=O", "note": "[pazopanib]", "values": [
      {"measurement": "%-inhibition of SGK", "setting": "[1]", "result": -1.12, "unit": "%"},
      {"measurement": "%-inhibition of CRIK", "setting": "[2]", "result": -2, "unit": "%"},
      {"measurement": "%-inhibition of RET(S891A)", "setting": "[3]", "result": 100, "unit": "%"},
      {"measurement": "%-inhibition of MAPKAPK5", "setting": "[4]", "result": -4, "unit": "%"},
      {"measurement": "%-inhibition of NEK9", "setting": "[5]", "result": 3.59, "unit": "%"},
      {"measurement": "%-inhibition of NDR2", "setting": "[6]", "result": 2.36, "unit": "%"},
      {"measurement": "%-inhibition, CK1γ3", "setting": "[7]", "result": -2, "unit": "%"}
    ]}
  ]
}
